Laboratory results published in PMC12185845, “How allosteric mutations control ligand binding in Lipocalin protein: odorant binding protein as a test case” (Cellular and Molecular Life Sciences: CMLS, 2025).
Where a chain is given by its changes, count along the chain named.

Assays:
Experiment in all cases: isothermal titration calorimetry, single-site fit
Format in all cases: binding
rOBP1 (rOBP1-wt) [1] = target: T1, rOBP1 (rOBP1-wt) (Rattus norvegicus, UniProt P08937); details: 50 mM sodium phosphate, pH 7.5, 25 °C
T1 construct: gene Obp1f; S7
T1 sequence (P08937 16-172): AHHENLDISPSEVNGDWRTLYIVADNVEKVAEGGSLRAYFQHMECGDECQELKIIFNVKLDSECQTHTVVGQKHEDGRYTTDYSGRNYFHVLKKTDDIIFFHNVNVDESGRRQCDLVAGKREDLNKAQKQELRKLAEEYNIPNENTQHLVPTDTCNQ

rOBP1 (rOBP1-wt) [2] = target: T2, rOBP1 (rOBP1-wt) (Rattus norvegicus, UniProt P08937, S50C/Y98C, form not given); details: 50 mM sodium phosphate, pH 7.5, 25 °C
T2 construct: gene Obp1f; S7
T2 sequence (P08937 16-172 S50C/Y98C): T1 sequence (P08937 16-172) with S35C, Y83C

rOBP1 (rOBP1-wt) [3] = target: T1, rOBP1 (rOBP1-wt); details: 50 mM sodium phosphate, pH 7.5, 25 °C; ligand up to the millimolar range; distal allosteric position

Compound	Kd (rOBP1 (rOBP1-wt) [1])	binding (ITC) (rOBP1 (rOBP1-wt) [2])	binding (ITC) (rOBP1 (rOBP1-wt) [3])
C=CCc1ccc(O)c(OC)c1 [eugenol]	0.06 µM	total loss of binding for the three odorants as no heat change was observed	indicating a complete loss of affinity for all ligands
Cc1ccc(C(C)C)c(O)c1 [thymol]	0.441 µM	total loss of binding for the three odorants as no heat change was observed	indicating a complete loss of affinity for all ligands
